Test results published in patent US20020065227A1, “Charged compounds comprising a nucleic acid binding moiety and uses therefor” (priority 2000, published 2002).
Values after ≈ are worked out from the molar mass of the structure shown. Values joined by “and” are separate entries in the source; they are usually repeats but may differ in a detail not shown here. Equal entries are not always repeated.

Key:
[1] = tested on: AGTACT; experiment: DNase I footprint titration, AGTACT site; format: binding; details: equilibrium association constant Ka; pH 7.0, 22° C.
[2] = tested on: ACTACT; experiment: DNase I footprint titration, ACTACT site; format: binding; details: equilibrium association constant Ka; pH 7.0, 22° C.
[3] = tested on: ATTACT; experiment: DNase I footprint titration, ATTACT site; format: binding; details: equilibrium association constant Ka; pH 7.0, 22° C.
[4] = tested on: AATACT; experiment: DNase I footprint titration, AATACT site; format: binding; details: equilibrium association constant Ka; pH 7.0, 22° C.
[5] = tested on: Staphylococcus aureus (29213); experiment: MIC, NCCLS broth microdilution; format: cell-based; details: Staphylococcus aureus (29213)
[6] = tested on: Staphylococcus aureus (33591) (methicillin resistant); experiment: MIC, NCCLS broth microdilution; format: cell-based; details: Staphylococcus aureus (33591), methicillin resistant (MRSA)
[7] = tested on: Staphylococcus epidermidis (12228); experiment: MIC, NCCLS broth microdilution; format: cell-based; details: Staphylococcus epidermidis (12228)
[8] = tested on: Enterococcus faecalis (29212); experiment: MIC, NCCLS broth microdilution; format: cell-based; details: Enterococcus faecalis (29212)
[9] = tested on: Enterococcus faecium (51559) (vacomycin resistant); experiment: MIC, NCCLS broth microdilution; format: cell-based; details: Enterococcus faecium (51559), vancomycin resistant
[10] = tested on: Streptococcus pneumoniae (49619); experiment: MIC, NCCLS broth microdilution; format: cell-based; details: Streptococcus pneumoniae (49619)
[11] = tested on: Streptococcus pneumoniae (51422) (multiple drug resistant); experiment: MIC, NCCLS broth microdilution; format: cell-based
[12] = tested on: Streptococcus pyogenes (49339); experiment: MIC, NCCLS broth microdilution; format: cell-based; details: Streptococcus pyogenes (49339); Table Ia: Streptococcus Group A(49339)
[13] = tested on: Listeria monocytogenes (19115); experiment: MIC, NCCLS broth microdilution; format: cell-based
[14] = tested on: Bacillus anthracis; format: cell-based
[15] = tested on: Bacillus subtilis (6633); experiment: MIC, NCCLS broth microdilution; format: cell-based; details: Bacillus subtilis (6633)
[16] = tested on: Bacillus cereus (11778); experiment: MIC, NCCLS broth microdilution; format: cell-based; details: Bacillus cereus (11778)
[17] = tested on: Corynebacterium Group A (49676); experiment: MIC, NCCLS broth microdilution; format: cell-based; details: Corynebacterium Group A (49676)
[18] = tested on: Propionibacterium acnes (33179); experiment: MIC, NCCLS broth microdilution; format: cell-based; details: anaerobe
[19] = tested on: Clostridium perfringens (13124); experiment: microbe, parasite or virus in culture; format: cell-based; details: Clostridium perfringens (13124), anaerobe
[20] = tested on: Peptostreptococcus asaccharolytics (29743); experiment: MIC, NCCLS broth microdilution; format: cell-based; details: anaerobe
[21] = tested on: Haemophilus influenzae (49247); experiment: MIC, NCCLS broth microdilution; format: cell-based; details: Haemophilus influenzae (49247)
[22] = tested on: Esherichia coli (25922); experiment: MIC, NCCLS broth microdilution; format: cell-based, Escherichia coli; details: Escherichia coli (25922)
[23] = tested on: Pseudomona aeruginosa (27853); experiment: MIC, NCCLS broth microdilution; format: cell-based; details: Pseudomona aeruginosa (27853)
[24] = tested on: Candida albicans (90028); experiment: MIC, antifungal assay; format: cell-based
[25] = tested on: Saccharomyces cerevisiae (44773); experiment: MIC, antifungal assay; format: cell-based
[26] = tested on: Aspergillus niger (10535); experiment: MIC, antifungal assay; format: cell-based
[27] = tested on: Fusarium solani (36031); experiment: MIC, antifungal assay; format: cell-based
[28] = tested on: Paecilomyces variotii (22319); experiment: MIC, antifungal assay; format: cell-based
[29] = tested on: Trichophyto tonsurans (28942); experiment: MIC, antifungal assay; format: cell-based
[30] = tested on: Staphylococcus aureus (29213); experiment: MBC according to NCCLS guideline; format: cell-based
[31] = tested on: Enterococcus faecalis (29212); experiment: MBC according to NCCLS guideline; format: cell-based
[32] = tested on: Streptococcus pneumoniae (49619); experiment: MBC according to NCCLS guideline; format: cell-based
[33] = tested on: Bacillus cereus (11778); experiment: MBC according to NCCLS guideline; format: cell-based
[34] = tested on: Candida albicans (90028); experiment: MBC according to NCCLS guideline; format: cell-based
[35] = tested on: Saccharomyces cerevisiae (44773); experiment: MBC according to NCCLS guideline; format: cell-based
[36] = tested on: all species tested; experiment: Microbicidal activity (MIC versus MBC), all species tested; format: cell-based; details: in words; from difference between MICs and MBCs
Description: The minimal bactericidal concentration (MBC) has been determined for some of these designed compounds according to NCCLS guideline (Lorian, V. 1996 Antibiotics in laboratory medicine (The Williams & Wilkins Co., Baltimore, Md.)). The difference between the MICs and the MBCs has been established as an index of the bactericidal activity of an antibiotic.

[37] = tested on: Candida albicans (38247) (Polyene resistant); experiment: MIC, antifungal assay; format: cell-based
[38] = tested on: different species of bacteria and fungi; details: exception: Gram-negative bacteria such as Escherichia and Pseudomonas
[39] = tested on: Staphylococcus aureus (33591) (methicillin resistant)
[40] = tested on: Staphylococcus epidermidis (12228)
[41] = tested on: Enterococcus faecium (51559) (vacomycin resistant); details: vancomycin resistant
[42] = tested on: Streptococcus pyogenes (49339)
[43] = tested on: Bacillus subtilis (6633)
[44] = tested on: Micrococcus luteus (381)
[45] = tested on: Corynebacterium Group A (49676)
[46] = tested on: Propionibacterium acnes (33179)
[47] = tested on: Clostridium perfringens (13124)
[48] = tested on: Peptostreptococcus asaccharolytics (29743)
[49] = tested on: TGGTCA; details: equilibrium association constant Ka; pH 7.0, 22° C.

For `CN(C)CCCNC(=O)c1cc(NC(=O)c2cc(NC(=O)c3cc(NC(=O)c4nsc(NCCCN)c4Cl)cn3C)cn2C)cn1C` [V-b], the “Binding Constant, sequence AGTACT” value [1] was 3e+09 M⁻¹, the “Binding Constant, sequence ACTACT” value [2] was 2e+08 M⁻¹ and the “Binding Constant, sequence ATTACT” value [3] was 1e+08 M⁻¹. For the same compound, the “Binding Constant, sequence AATACT” value [4] was 1e+08 M⁻¹, the MIC [5] was 2 µg/mL (≈ 2.91 µM) and the MIC [6] was 4 µg/mL (≈ 5.83 µM). For the same compound, the MIC [7] was 2 µg/mL (≈ 2.91 µM), the MIC [8] was 1 µg/mL (≈ 1.46 µM) and the MIC [9] was 2 to 4 µg/mL. For the same compound, the MIC [10] was 0.5 µg/mL (≈ 0.729 µM), the MIC [11] was 1 µg/mL (≈ 1.46 µM) and the MIC [12] was 0.25 µg/mL (≈ 0.364 µM). It also gave an MIC [13] of 8 µg/mL (≈ 11.7 µM), an MIC [14] of 32 µg/mL (≈ 46.6 µM) and an MIC [15] of 0.5 to 1 µg/mL. For the same compound, the MIC [16] was 0.5 µg/mL (≈ 0.729 µM), the MIC [17] was 0.5 µg/mL (≈ 0.729 µM) and the MIC [18] was 4 µg/mL (≈ 5.83 µM). The MIC [19] was 1 µg/mL (≈ 1.46 µM), the MIC [20] was 0.125 µg/mL (≈ 0.182 µM) and the MIC [21] was 32 µg/mL (≈ 46.6 µM). It also gave an MIC [22] greater than 128 µg/mL, an MIC [23] greater than 128 µg/mL and an MIC [24] of 4 µg/mL (≈ 5.83 µM). The MIC [25] was 16 µg/mL (≈ 23.3 µM), the MIC [26] was 4 µg/mL (≈ 5.83 µM) and the MIC [27] was 4 to 8 µg/mL. For the same compound, the MIC [28] was 0.5 µg/mL (≈ 0.729 µM), the MIC [29] was 16 µg/mL (≈ 23.3 µM) and the MBC [30] was 4 µg/mL (≈ 5.83 µM). The MBC [31] was greater than 4 µg/mL, the MBC [32] was 0.5 µg/mL (≈ 0.729 µM) and the MBC [33] was 0.5 µg/mL (≈ 0.729 µM). For the same compound, the MBC [34] was 4 µg/mL (≈ 5.83 µM), the MBC [35] was 16 µg/mL (≈ 23.3 µM) and the Microbicidal activity [36] was “microbicidal agents for all species tested”.
With `CN(C)CCCNC(=O)c1cc(NC(=O)c2cc(NC(=O)c3cc(NC(=O)c4nsc(NCCCCN)c4Cl)cn3C)cn2C)cn1C` [V-a] the “Binding Constant, sequence AGTACT” value [1] was 3e+09 M⁻¹, the “Binding Constant, sequence ACTACT” value [2] was 1e+08 M⁻¹ and the “Binding Constant, sequence ATTACT” value [3] was 1e+08 M⁻¹. For the same compound, the “Binding Constant, sequence AATACT” value [4] was 1e+08 M⁻¹, the MIC [5] was 2 µg/mL (≈ 2.86 µM) and the MIC [6] was 2 µg/mL (≈ 2.86 µM). The MIC [7] was 1 µg/mL (≈ 1.43 µM), the MIC [8] was 1 µg/mL (≈ 1.43 µM) and the MIC [9] was 1 µg/mL (≈ 1.43 µM). The MIC [10] was 0.5 µg/mL (≈ 0.714 µM), the MIC [11] was 8 µg/mL (≈ 11.4 µM) and the MIC [12] was 0.125 µg/mL (≈ 0.179 µM). The MIC [13] was 4 µg/mL (≈ 5.71 µM), the MIC [14] was 4 µg/mL (≈ 5.71 µM) and the MIC [15] was 0.25 µg/mL and 0.25 to 0.5 µg/mL. For the same compound, the MIC [16] was 0.25 µg/mL (≈ 0.357 µM), the MIC [17] was 0.25 µg/mL and 0.25 to 0.5 µg/mL and the MIC [18] was 2 µg/mL and 4 µg/mL. For the same compound, the MIC [19] was 1 µg/mL (≈ 1.43 µM), the MIC [20] was 0.125 µg/mL (≈ 0.179 µM) and the MIC [21] was 32 µg/mL (≈ 45.7 µM). It also gave an MIC [22] greater than 128 µg/mL, an MIC [23] greater than 128 µg/mL and an MIC [24] of 4 µg/mL (≈ 5.71 µM). It also gave an MIC [37] of 4 µg/mL (≈ 5.71 µM), an MIC [25] of 8 µg/mL (≈ 11.4 µM) and an MIC [26] of 2 µg/mL (≈ 2.86 µM). It also gave an MIC [27] of 4 µg/mL (≈ 5.71 µM), an MIC [28] of 0.5 µg/mL (≈ 0.714 µM) and an MIC [29] of 16 µg/mL (≈ 22.8 µM). The MBC [30] was 2 µg/mL (≈ 2.86 µM), the MBC [31] was greater than 4 µg/mL and the MBC [32] was 0.5 µg/mL (≈ 0.714 µM). For the same compound, the MBC [33] was 0.5 µg/mL (≈ 0.714 µM), the MBC [34] was 4 µg/mL (≈ 5.71 µM) and the MBC [35] was 8 µg/mL (≈ 11.4 µM). For the same compound, the Microbicidal activity [36] was “microbicidal agents for all species tested”, the “MIC for most species tested” value [38] was “less than 8 μg/mL” and the MBC [39] was 4 µg/mL (≈ 5.71 µM). It also gave an MBC [40] of 1 µg/mL (≈ 1.43 µM), an MBC [41] of 2 to 4 µg/mL and an MBC [42] of 0.125 µg/mL (≈ 0.179 µM). It also gave an MBC [43] of 0.5 µg/mL (≈ 0.714 µM), an MBC [44] of 0.5 µg/mL (≈ 0.714 µM) and an MBC [45] of 0.25 µg/mL (≈ 0.357 µM). It also gave an MBC [46] of 8 µg/mL (≈ 11.4 µM), an MBC [47] of 2 µg/mL (≈ 2.86 µM) and an MBC [48] of 0.25 µg/mL (≈ 0.357 µM).
For `CN(C)CCCNC(=O)CCNC(=O)c1cc(NC(=O)c2cc(NC(=O)c3cc(NC(=O)c4cc(NC(=O)c5nsc(Cl)c5Cl)cn4C)cn3C)cn2C)cn1C` [V-t], the “Binding Constant, sequence AGTACT” value [1] was 2e+08 M⁻¹, the “Binding Constant, sequence ACTACT” value [2] was 2e+08 M⁻¹ and the “Binding Constant, sequence ATTACT” value [3] was 2e+08 M⁻¹. For the same compound, the “Binding Constant, sequence AATACT” value [4] was 2e+08 M⁻¹ and the “Binding Constant, sequence TGGTCA” value [49] was 1e+10 M⁻¹.
